The results in this text go back to ChEMBL document CHEMBL4177710, “Bisindolylmethane thiosemicarbazides as potential inhibitors of urease: Synthesis and molecular modeling studies” (Bioorg Med Chem, 2018).

Each structure is given as a SMILES string.

For the experiment, the target named is Urease (Canavalia ensiformis, UniProt P07374). The experiment in a line: Inhibition of jack bean urease assessed as reduction in ammonia production using urea as substrate after 15 mins by indophenol method.
Chain of Urease (P07374 whole entry): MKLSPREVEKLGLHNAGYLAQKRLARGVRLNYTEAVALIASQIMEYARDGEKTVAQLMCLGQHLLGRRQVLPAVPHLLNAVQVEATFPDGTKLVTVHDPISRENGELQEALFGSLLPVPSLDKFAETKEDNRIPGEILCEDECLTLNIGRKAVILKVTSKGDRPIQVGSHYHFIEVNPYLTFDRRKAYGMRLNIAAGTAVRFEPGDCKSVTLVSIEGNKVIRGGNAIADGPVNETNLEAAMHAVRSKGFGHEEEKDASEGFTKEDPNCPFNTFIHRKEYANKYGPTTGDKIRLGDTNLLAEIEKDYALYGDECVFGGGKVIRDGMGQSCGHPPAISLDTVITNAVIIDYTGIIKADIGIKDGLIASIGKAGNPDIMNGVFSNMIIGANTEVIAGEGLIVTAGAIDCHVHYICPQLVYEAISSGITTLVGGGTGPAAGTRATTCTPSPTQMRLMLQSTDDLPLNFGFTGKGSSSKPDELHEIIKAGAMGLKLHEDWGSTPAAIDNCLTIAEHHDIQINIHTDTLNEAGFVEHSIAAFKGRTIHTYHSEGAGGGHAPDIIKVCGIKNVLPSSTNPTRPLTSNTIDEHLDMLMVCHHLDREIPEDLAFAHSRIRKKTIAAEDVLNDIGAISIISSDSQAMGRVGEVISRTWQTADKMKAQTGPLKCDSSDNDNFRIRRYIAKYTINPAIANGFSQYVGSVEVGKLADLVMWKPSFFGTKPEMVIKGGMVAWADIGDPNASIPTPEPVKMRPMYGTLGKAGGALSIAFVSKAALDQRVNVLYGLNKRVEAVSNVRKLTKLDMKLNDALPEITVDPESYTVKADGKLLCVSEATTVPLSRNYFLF
As for `COc1ccccc1NC(=S)NNC(=O)c1ccc2[nH]cc(C(c3ccc(C)cc3)c3c[nH]c4ccc(C(=O)NNC(=S)Nc5ccccc5OC)cc34)c2c1`, the IC50 worked out at 8400 nM. Regarding `Cc1ccc(C(c2c[nH]c3ccc(C(=O)NNC(=S)Nc4cccc(F)c4)cc23)c2c[nH]c3ccc(C(=O)NNC(=S)Nc4cccc(F)c4)cc23)cc1`, the half-maximal inhibitory concentration (IC50) amounted to 980 nM. On to `Cc1ccc(C(c2c[nH]c3ccc(C(=O)NNC(=S)Nc4ccc([N+](=O)[O-])cc4)cc23)c2c[nH]c3ccc(C(=O)NNC(=S)Nc4ccc([N+](=O)[O-])cc4)cc23)cc1`, for which the half-inhibitory concentration (IC50) is 9500 nM. On to `COc1cccc(NC(=S)NNC(=O)c2ccc3[nH]cc(C(c4ccc(C)cc4)c4c[nH]c5ccc(C(=O)NNC(=S)Nc6cccc(OC)c6)cc45)c3c2)c1`, for which the concentration for half-maximal inhibition (IC50) was determined as 12100 nM. Under `Cc1ccc(C(c2c[nH]c3ccc(C(=O)NNC(=S)Nc4cccc([N+](=O)[O-])c4)cc23)c2c[nH]c3ccc(C(=O)NNC(=S)Nc4cccc([N+](=O)[O-])c4)cc23)cc1` stands 7600 nM; under `Cc1ccc(C(c2c[nH]c3ccc(C(=O)NNC(=S)Nc4ccccc4Cl)cc23)c2c[nH]c3ccc(C(=O)NNC(=S)Nc4ccccc4Cl)cc23)cc1`, 1200 nM. In the case of `Cc1ccc(C(c2c[nH]c3ccc(C(=O)NNC(=S)Nc4cccc(C)c4)cc23)c2c[nH]c3ccc(C(=O)NNC(=S)Nc4cccc(C)c4)cc23)cc1` it was 5100 nM; in that of `Cc1ccc(C(c2c[nH]c3ccc(C(=O)NNC(=S)Nc4cccc(Br)c4)cc23)c2c[nH]c3ccc(C(=O)NNC(=S)Nc4cccc(Br)c4)cc23)cc1`, 1800 nM. In the case of `Cc1ccc(C(c2c[nH]c3ccc(C(=O)NNC(=S)Nc4ccc(Cl)cc4)cc23)c2c[nH]c3ccc(C(=O)NNC(=S)Nc4ccc(Cl)cc4)cc23)cc1`, the IC50 amounted to 2750 nM. In the case of `Cc1ccc(NC(=S)NNC(=O)c2ccc3[nH]cc(C(c4ccc(C)cc4)c4c[nH]c5ccc(C(=O)NNC(=S)Nc6ccc(C)cc6)cc45)c3c2)cc1`, the IC50 was determined as 4200 nM. Regarding `Cc1ccc(C(c2c[nH]c3ccc(C(=O)NNC(=S)Nc4ccccc4F)cc23)c2c[nH]c3ccc(C(=O)NNC(=S)Nc4ccccc4F)cc23)cc1`, the half-maximal inhibitory concentration (IC50) was determined as 800 nM. With `Cc1ccc(C(c2c[nH]c3ccc(C(=O)NNC(=S)Nc4ccc(Cl)c(Cl)c4)cc23)c2c[nH]c3ccc(C(=O)NNC(=S)Nc4ccc(Cl)c(Cl)c4)cc23)cc1`, the concentration for half-maximal inhibition (IC50) stood at 140 nM.

Consider `Cc1ccc(C(c2c[nH]c3ccc(C(=O)NNC(=S)Nc4ccc(C(F)(F)F)cc4)cc23)c2c[nH]c3ccc(C(=O)NNC(=S)Nc4ccc(C(F)(F)F)cc4)cc23)cc1`, for which the half-inhibitory concentration (IC50) worked out at 500 nM.

For the compound `Cc1ccc(C(c2c[nH]c3ccc(C(=O)NNC(=S)NC45CC6CC(CC(C6)C4)C5)cc23)c2c[nH]c3ccc(C(=O)NNC(=S)NC45CC6CC(CC(C6)C4)C5)cc23)cc1` (stereo not drawn), the concentration for half-maximal inhibition (IC50) was 18500 nM. Turning to `Cc1ccc(C(c2c[nH]c3ccc(C(=O)NNC(=S)Nc4ccccc4C)cc23)c2c[nH]c3ccc(C(=O)NNC(=S)Nc4ccccc4C)cc23)cc1`, the IC50 stood at 3300 nM. Take `Cc1ccc(C(c2c[nH]c3ccc(C(=O)NNC(=S)Nc4ccc(F)cc4)cc23)c2c[nH]c3ccc(C(=O)NNC(=S)Nc4ccc(F)cc4)cc23)cc1`: the concentration for half-maximal inhibition (IC50) is 1100 nM.

Consider `Cc1ccc(C(c2c[nH]c3ccc(C(=O)NNC(=S)Nc4ccccc4Br)cc23)c2c[nH]c3ccc(C(=O)NNC(=S)Nc4ccccc4Br)cc23)cc1`, for which the concentration for half-maximal inhibition (IC50) came to 2500 nM.

In the case of `Cc1ccc(C(c2c[nH]c3ccc(C(=O)NNC(=S)Nc4ccc(Br)cc4)cc23)c2c[nH]c3ccc(C(=O)NNC(=S)Nc4ccc(Br)cc4)cc23)cc1`, the IC50 came to 1300 nM.

Usually IC50 stands for the concentration that inhibits the measured activity by half.
